The values below come from patent US20260242452A1, “METHOD FOR DEGRADING TARGET PROTEIN” (Inter-University Research Institute Corporation Research …, priority 2023, published 2026).

Assay type in all cases: cell-based, human
For one assay, the system named is SMC6-GFP. Nature of the assay: Degradation of SMC6-GFP, GFP fluorescence quantified by flow cytometry (FACS). Particulars: 1 μM 5-Ph-IAA, 4 hours; HCT116 cells expressing SMC6-GFP, OsTIR1 (F74G) and GFP nanobody adapter. Here is the method: (§1) As an mAID-single-chain antibody (nanobody) gene (also referred to as an adapter), a wild-type (WT adapter) and a ubiquitination-resistant mutant (KR adapter) in which all lysine residues (K) in the amino acid sequence encoded by the mAID-single-chain antibody (nanobody) gene were substituted with arginine residues (R) were prepared.
(§2) A co-expression vector in which the OsTIR1 (F74G) gene and the WT adapter or the KR adapter were connected by a self-cleaving sequence P2A gene was prepared (see FIG. 2).
(§3) In the chromosome of HCT116 cells, DNA encoding GFP was introduced into the downstream of DNA encoding each of the nuclear protein SMC6 and the cytoplasmic protein DHC1 by transposon, and cells expressing SMC6-GFP and cells expressing DHC1-GFP were prepared.
(§4) A co-expression vector containing an adapter (WT adapter; KR adapter) that contains a gene encoding a GFP nanobody (GFP nanobody WT gene sequence (SEQ ID NO: 9); GFP nanobody KR gene sequence (SEQ ID NO: 10)), together with the OsTIR1 (F74G) gene, was introduced into the cells expressing each SMC6-GFP and DHC1-GFP. […]
(§5) These cells were treated with 1 μM 5-Ph-IAA for 4 hours, and the GFP fluorescence in the cells was quantified using flow cytometry. […]
as §5

Another assay relates to DHC1-GFP. Description: Degradation of DHC1-GFP, GFP fluorescence quantified by flow cytometry (FACS). Particulars: 1 μM 5-Ph-IAA, 4 hours; HCT116 cells expressing DHC1-GFP, OsTIR1 (F74G) and GFP nanobody adapter. Here is the method:
as §1, §2, §3, §4, §5, §5

The next assay concerns RAD21-GFP. Description: Degradation of RAD21-GFP, GFP fluorescence quantified by flow cytometry (FACS). Particulars: 1 μM 5-Ph-IAA, 4 hours; HCT116 cells expressing RAD21-GFP, OsTIR1 (F74G) and GFP nanobody adapter. The protocol: As the mAID-single-chain antibody (nanobody) gene, in addition to the WT adapter and the KR adapter, a hybrid adapter in which all lysine residues (K) in the amino acid sequence encoded by the mAID gene were substituted with arginine residues (R) was prepared. As in Example 1, a co-expression vector in which the OsTIR1 (F74G) gene and the WT adapter, the KR adapter, or the hybrid adapter were connected by a self-cleaving sequence P2A gene was prepared (see FIG. 7).
In the chromosome of HCT116 cells, DNA encoding GFP was added to the downstream of DNA encoding each of the nuclear protein SMC6, the nuclear protein RAD21, and the cytoplasmic protein DHC1 by genome editing, and cells expressing SMC6-GFP and cells expressing DHC1-GFP were prepared (see FIG. 8).
A co-expression vector containing an adapter (WT adapter; KR adapter; hybrid adapter) that contains a gene encoding a GFP nanobody (GFP nanobody WT (SEQ ID NO: 9); GFP nanobody KR (SEQ ID NO: 10)), together with the OsTIR1 (F74G) gene, was introduced into the cells expressing each SMC6-GFP, RAD21-GFP, and DHC1-GFP by transposon. As a control, a plasmid in which only OsTIR1 (F74G) and mAID were expressed was introduced (see FIG. 8).
as §5

The next assay relates to endogenous p53. Description: Expression level of endogenous p53 by Western blotting. As to conditions: 1 μM 5-Ph-IAA, 6 hours; cells expressing OsTIR1 (F74G) and p53 nanobody KR adapter. The protocol:
Furthermore, the same experiment was performed using an adapter (WT adapter; KR adapter) containing a gene encoding a p53 nanobody (p53 nanobody WT gene sequence (SEQ ID NO: 11); p53 nanobody KR gene sequence (SEQ ID NO: 12)) (see the left part of FIG. 6). The cells were treated with 1 μM 5-Ph-IAA for 6 hours, and the expression level of endogenous p53 was confirmed by Western blotting. The results are shown in the right part of FIG. 6.
Furthermore, the same experiment was performed using an adapter (WT adapter; KR adapter; hybrid adapter) containing a gene encoding a p53 nanobody (p53 nanobody WT gene sequence (SEQ ID NO: 11); p53 nanobody KR gene sequence (SEQ ID NO: 12)) (see the left part of FIG. 10). The cells were treated with 1 μM 5-Ph-IAA for 6 hours, and the expression level of endogenous p53 was confirmed by Western blotting. The results are shown in the right part of […].

A further assay relates to endogenous RAS. Description: Expression level of endogenous RAS by Western blotting. As to conditions: 1 μM 5-Ph-IAA, 6 hours; cells expressing OsTIR1 (F74G) and RAS nanobody hybrid adapter. Here is the method: Furthermore, the same experiment was performed using an adapter (KR adapter; hybrid adapter) containing a gene encoding a RAS nanobody (gene sequence of RAS nanobody WT (SEQ ID NO: 14), amino acid sequence of RAS nanobody WT (SEQ ID NO: 15); gene sequence of RAS nanobody KR (SEQ ID NO: 16), amino acid sequence of RAS nanobody KR (SEQ ID NO: 17)) (see the left part of FIG. 11). The cells were treated with 1 μM 5-Ph-IAA for 6 hours, and the expression level of endogenous RAS was confirmed by Western blotting. The results are shown in the right part of […].

Turning to `O=C(O)Cc1c[nH]c2ccc(-c3ccccc3)cc12` [Formula 5-Ph-IAA, 5-Ph-IAA], the “5-Ph-IAA-dependent degradation of target protein SMC6-GFP (GFP fluorescence)” value with SMC6-GFP is listed as “could be degraded”. In addition, the “5-Ph-IAA-dependent degradation of target protein DHC1-GFP (GFP fluorescence)” value with DHC1-GFP is “could be degraded”. For the same molecule, in the assay on RAD21-GFP, the “5-Ph-IAA-dependent degradation of target protein RAD21-GFP (GFP fluorescence)” value is “could be degraded”. Moreover, the “5-Ph-IAA-dependent degradation of endogenous p53 (Western blotting)” value with endogenous p53 is “could be degraded”. Also, in the assay with endogenous RAS, the “5-Ph-IAA-dependent degradation of endogenous RAS (Western blotting)” value is “could be efficiently degraded”.
